Test results as given in ChEMBL document CHEMBL2429821, “A Casein kinase 1/Checkpoint kinase 1 pyrazolo-pyridine protein kinase inhibitor as novel activator of the p53 pathway” (Bioorg Med Chem Lett, 2013).
Activity calls are given as the source filed them. No cut-off for these calls is given here.

Assays:
[1] = target: T1, Casein kinase I/MDM2 (Homo sapiens) (UniProt Q00987+P48729); assay: Inhibition of CK1-MDM2 complex in human A375 cells assessed as increase in […] protein level at 0.2 to 40 uM after 24 hrs by immunoblotting analysis; type: cell-based; settings: A-375
T1 sequence (P48729 whole entry, looked up): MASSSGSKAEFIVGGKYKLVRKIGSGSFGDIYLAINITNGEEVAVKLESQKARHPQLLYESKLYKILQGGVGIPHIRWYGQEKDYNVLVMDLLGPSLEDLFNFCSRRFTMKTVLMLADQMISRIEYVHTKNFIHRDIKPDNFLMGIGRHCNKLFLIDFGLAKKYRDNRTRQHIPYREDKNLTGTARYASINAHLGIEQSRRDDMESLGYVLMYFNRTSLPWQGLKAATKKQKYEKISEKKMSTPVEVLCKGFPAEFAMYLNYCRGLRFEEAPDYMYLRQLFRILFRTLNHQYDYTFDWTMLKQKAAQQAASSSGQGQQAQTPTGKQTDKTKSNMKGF
T1 sequence (Q00987 whole entry, looked up): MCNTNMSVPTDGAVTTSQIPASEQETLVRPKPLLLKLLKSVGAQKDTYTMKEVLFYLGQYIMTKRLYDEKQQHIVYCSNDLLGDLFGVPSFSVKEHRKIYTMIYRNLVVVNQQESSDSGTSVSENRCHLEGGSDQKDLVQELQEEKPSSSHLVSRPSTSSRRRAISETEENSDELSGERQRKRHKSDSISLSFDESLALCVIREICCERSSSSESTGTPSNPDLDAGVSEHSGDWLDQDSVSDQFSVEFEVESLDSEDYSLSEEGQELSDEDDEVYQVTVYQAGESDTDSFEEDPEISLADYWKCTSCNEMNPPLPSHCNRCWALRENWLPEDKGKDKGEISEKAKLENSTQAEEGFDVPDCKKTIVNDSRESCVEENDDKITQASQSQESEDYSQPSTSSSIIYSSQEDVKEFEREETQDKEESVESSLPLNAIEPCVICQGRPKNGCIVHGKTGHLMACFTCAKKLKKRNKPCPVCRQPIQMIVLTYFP

[2] = target: T1, Casein kinase I/MDM2 (Homo sapiens); assay: Inhibition of CK1-MDM2 complex in human A375 cells assessed as effect on p21 protein level at 0.2 to 40 uM after 24 hrs by immunoblotting analysis; type: cell-based; settings: A-375
[3] = target: T1, Casein kinase I/MDM2 (Homo sapiens); assay: Inhibition of CK1-MDM2 complex in human A375 cells assessed as decrease in MDM2 protein level at 0.2 to 40 uM after 24 hrs by immunoblotting analysis; type: cell-based; settings: A-375
[4] = target: T1, Casein kinase I/MDM2 (Homo sapiens); assay: Inhibition of CK1-MDM2 complex in human A375 cells assessed as increase in p53 protein level at 0.2 to 40 uM after 24 hrs by immunoblotting analysis; type: cell-based; settings: A-375
[5] = tested on: A-375; assay: Cell cycle arrest in human A375 cells assessed as accumulation at G2-M phase at 80 uM after 48 hrs by FACS flow cytometric analysis (reference value: 17.3%); type: functional
[6] = tested on: A-375; assay: Cell cycle arrest in human A375 cells assessed as accumulation at S phase at 80 uM after 48 hrs by FACS flow cytometric analysis (reference value: 25.1%); type: functional
[7] = tested on: A-375; assay: Cell cycle arrest in human A375 cells assessed as accumulation at sub-G1 phase at 80 uM after 48 hrs by FACS flow cytometric analysis (reference value: 2.17%); type: functional
[8] = tested on: A-375; assay: Cell cycle arrest in human A375 cells assessed as accumulation at G0-G1 phase at 80 uM after 48 hrs by FACS flow cytometric analysis (reference value: 55.4%); type: functional
[9] = tested on: A-375; assay: Cell cycle arrest in human A375 cells assessed as accumulation at G2-M phase at 40 uM after 48 hrs by FACS flow cytometric analysis (reference value: 17.3%); type: functional
[10] = tested on: A-375; assay: Cell cycle arrest in human A375 cells assessed as accumulation at S phase at 40 uM after 48 hrs by FACS flow cytometric analysis (reference value: 25.1%); type: functional
[11] = tested on: A-375; assay: Cell cycle arrest in human A375 cells assessed as accumulation at G0-G1 phase at 40 uM after 48 hrs by FACS flow cytometric analysis (reference value: 55.4%); type: functional
[12] = tested on: A-375; assay: Cell cycle arrest in human A375 cells assessed as accumulation at sub-G1 phase at 40 uM after 48 hrs by FACS flow cytometric analysis (reference value: 2.17%); type: functional
[13] = tested on: A-375; assay: Cell cycle arrest in human A375 cells assessed as accumulation at S phase at 20 uM after 48 hrs by FACS flow cytometric analysis (reference value: 25.1%); type: functional
[14] = tested on: A-375; assay: Cell cycle arrest in human A375 cells assessed as accumulation at G2-M phase at 20 uM after 48 hrs by FACS flow cytometric analysis (reference value: 17.3%); type: functional
[15] = tested on: A-375; assay: Cell cycle arrest in human A375 cells assessed as accumulation at G0-G1 phase at 20 uM after 48 hrs by FACS flow cytometric analysis (reference value: 55.4%); type: functional
[16] = tested on: A-375; assay: Cell cycle arrest in human A375 cells assessed as accumulation at sub-G1 phase at 20 uM after 48 hrs by FACS flow cytometric analysis (reference value: 2.17%); type: functional
[17] = tested on: A-375; assay: Cell cycle arrest in human A375 cells assessed as accumulation at G2-M phase at 10 uM after 48 hrs by FACS flow cytometric analysis (reference value: 17.3%); type: functional
[18] = tested on: A-375; assay: Cell cycle arrest in human A375 cells assessed as accumulation at S phase at 10 uM after 48 hrs by FACS flow cytometric analysis (reference value: 25.1%); type: functional
[19] = tested on: A-375; assay: Cell cycle arrest in human A375 cells assessed as accumulation at G0-G1 phase at 10 uM after 48 hrs by FACS flow cytometric analysis (reference value: 55.4%); type: functional
[20] = tested on: A-375; assay: Cell cycle arrest in human A375 cells assessed as accumulation at sub-G1 phase at 10 uM after 48 hrs by FACS flow cytometric analysis (reference value: 2.17%); type: functional
[21] = tested on: A-375; assay: Cytotoxicity against human A375 cells assessed as reduction in cell number at 10 to 40 uM after 24 hrs by light microscopic analysis relative to control; type: functional, cell-based
[22] = target: Mitogen-activated protein kinase 14 (Homo sapiens, UniProt Q16539); assay: Inhibition of human p38alpha MAPK in presence of 50 uM ATP; settings: read-out: IC50
Sequence of Mitogen-activated protein kinase 14 (Q16539 whole entry, canonical isoform): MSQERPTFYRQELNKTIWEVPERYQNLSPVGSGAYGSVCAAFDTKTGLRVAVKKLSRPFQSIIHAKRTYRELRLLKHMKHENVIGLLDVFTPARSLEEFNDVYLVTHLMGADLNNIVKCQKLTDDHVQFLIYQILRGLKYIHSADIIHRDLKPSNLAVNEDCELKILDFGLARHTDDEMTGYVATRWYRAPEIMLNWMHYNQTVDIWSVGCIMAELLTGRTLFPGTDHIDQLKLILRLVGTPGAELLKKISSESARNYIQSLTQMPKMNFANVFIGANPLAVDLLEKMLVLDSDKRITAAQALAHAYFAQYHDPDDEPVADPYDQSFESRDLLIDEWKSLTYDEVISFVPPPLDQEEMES

[23] = target: Casein kinase I isoform delta (Rattus norvegicus, UniProt Q06486); assay: Inhibition of rat CK1delta in presence of 20 uM ATP
Sequence of Casein kinase I isoform delta (Q06486 whole entry, canonical isoform): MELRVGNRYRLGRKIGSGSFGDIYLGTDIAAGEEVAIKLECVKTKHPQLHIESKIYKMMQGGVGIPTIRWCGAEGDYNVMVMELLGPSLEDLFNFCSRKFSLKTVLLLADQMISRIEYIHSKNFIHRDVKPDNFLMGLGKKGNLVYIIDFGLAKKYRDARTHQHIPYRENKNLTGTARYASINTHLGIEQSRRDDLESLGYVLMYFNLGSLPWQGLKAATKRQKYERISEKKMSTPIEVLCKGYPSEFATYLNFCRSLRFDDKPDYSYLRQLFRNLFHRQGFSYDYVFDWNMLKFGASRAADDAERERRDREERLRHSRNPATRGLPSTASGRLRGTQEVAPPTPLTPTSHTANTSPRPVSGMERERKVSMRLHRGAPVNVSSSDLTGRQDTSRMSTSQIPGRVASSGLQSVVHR

[24] = target: T2, Serine/threonine-protein kinase Chk1 (Homo sapiens, UniProt O14757); assay: Inhibition of human CHK1 in presence of 20 uM ATP
T2 sequence (O14757 whole entry): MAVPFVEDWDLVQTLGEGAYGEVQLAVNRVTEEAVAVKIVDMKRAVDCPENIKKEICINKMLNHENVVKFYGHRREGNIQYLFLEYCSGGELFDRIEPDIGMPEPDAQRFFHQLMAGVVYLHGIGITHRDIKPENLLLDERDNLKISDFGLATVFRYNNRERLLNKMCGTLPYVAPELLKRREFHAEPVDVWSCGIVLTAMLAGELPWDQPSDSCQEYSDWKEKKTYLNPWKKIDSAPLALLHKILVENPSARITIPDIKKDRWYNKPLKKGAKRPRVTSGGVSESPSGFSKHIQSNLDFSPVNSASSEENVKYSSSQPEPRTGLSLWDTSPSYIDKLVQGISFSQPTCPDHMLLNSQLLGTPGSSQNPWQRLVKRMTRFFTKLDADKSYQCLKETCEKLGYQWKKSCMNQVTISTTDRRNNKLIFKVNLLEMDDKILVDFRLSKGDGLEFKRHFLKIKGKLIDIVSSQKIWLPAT

[25] = target: Rho-associated protein kinase 2 (Rattus norvegicus) (UniProt Q62868); assay: Inhibition of rat ROCK2 assessed as residual activity at 10 uM relative to control
Sequence of Rho-associated protein kinase 2 (Rattus norvegicus) (Q62868 whole entry, looked up): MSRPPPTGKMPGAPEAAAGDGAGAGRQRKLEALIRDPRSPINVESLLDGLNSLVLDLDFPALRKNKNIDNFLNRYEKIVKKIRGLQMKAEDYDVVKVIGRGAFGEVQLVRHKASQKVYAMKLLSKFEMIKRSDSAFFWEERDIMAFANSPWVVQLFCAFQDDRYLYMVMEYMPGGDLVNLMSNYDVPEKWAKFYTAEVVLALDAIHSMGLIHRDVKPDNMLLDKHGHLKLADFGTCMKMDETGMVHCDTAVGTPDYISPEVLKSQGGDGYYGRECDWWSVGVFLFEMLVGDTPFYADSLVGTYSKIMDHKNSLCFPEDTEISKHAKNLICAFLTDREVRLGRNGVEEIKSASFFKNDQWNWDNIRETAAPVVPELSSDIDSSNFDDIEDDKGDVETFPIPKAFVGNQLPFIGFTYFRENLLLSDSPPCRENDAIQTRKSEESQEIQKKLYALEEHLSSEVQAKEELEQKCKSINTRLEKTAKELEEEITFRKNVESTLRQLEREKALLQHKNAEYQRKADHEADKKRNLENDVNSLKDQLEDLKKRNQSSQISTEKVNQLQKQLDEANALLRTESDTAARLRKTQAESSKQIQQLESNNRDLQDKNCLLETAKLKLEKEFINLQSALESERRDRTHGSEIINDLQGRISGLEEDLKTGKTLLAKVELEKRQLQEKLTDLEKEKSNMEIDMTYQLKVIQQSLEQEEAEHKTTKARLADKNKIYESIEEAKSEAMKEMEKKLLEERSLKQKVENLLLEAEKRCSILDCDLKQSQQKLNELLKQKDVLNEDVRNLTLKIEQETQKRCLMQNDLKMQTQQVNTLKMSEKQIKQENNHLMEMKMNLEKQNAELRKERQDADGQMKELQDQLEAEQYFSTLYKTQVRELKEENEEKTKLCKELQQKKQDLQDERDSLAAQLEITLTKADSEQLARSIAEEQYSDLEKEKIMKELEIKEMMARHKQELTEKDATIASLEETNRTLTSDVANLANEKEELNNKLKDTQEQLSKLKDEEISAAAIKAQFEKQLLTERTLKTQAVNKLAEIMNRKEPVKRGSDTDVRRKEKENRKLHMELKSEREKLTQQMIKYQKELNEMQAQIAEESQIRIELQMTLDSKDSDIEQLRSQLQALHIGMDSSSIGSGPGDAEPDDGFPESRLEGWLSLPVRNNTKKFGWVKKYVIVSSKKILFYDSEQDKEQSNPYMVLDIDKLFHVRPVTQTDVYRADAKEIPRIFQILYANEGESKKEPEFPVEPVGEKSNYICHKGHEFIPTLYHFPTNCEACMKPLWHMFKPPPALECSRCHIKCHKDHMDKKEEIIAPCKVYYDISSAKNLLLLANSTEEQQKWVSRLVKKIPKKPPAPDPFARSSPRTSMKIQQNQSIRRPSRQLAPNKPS

[26] = species on record: Rattus norvegicus; assay: Inhibition of rat AMPK assessed as residual activity at 10 uM relative to control
[27] = target: Proto-oncogene tyrosine-protein kinase Src (Homo sapiens) (UniProt P12931); assay: Inhibition of human SRC assessed as residual activity at 10 uM relative to control
Sequence of Proto-oncogene tyrosine-protein kinase Src (Homo sapiens) (P12931 2-536 limits assumed): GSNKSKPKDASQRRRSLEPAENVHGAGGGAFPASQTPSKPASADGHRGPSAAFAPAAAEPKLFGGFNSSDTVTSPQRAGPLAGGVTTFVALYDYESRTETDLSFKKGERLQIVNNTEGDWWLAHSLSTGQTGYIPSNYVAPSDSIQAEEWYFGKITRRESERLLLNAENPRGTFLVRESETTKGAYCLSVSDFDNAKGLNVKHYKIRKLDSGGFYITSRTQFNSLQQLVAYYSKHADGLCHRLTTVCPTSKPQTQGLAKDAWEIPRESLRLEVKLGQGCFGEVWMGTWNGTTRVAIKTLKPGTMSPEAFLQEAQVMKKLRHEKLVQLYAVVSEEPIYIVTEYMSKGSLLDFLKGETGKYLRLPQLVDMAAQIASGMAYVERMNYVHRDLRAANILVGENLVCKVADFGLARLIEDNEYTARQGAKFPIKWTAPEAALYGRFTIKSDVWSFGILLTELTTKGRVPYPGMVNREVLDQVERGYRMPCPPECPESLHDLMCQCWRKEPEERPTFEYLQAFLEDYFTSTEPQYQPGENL

[28] = species on record: Oryctolagus cuniculus; assay: Inhibition of rabbit MKK1 assessed as residual activity at 10 uM relative to control
[29] = target: Dual specificity tyrosine-phosphorylation-regulated kinase 1A (Rattus norvegicus) (UniProt Q63470); assay: Inhibition of rat DYRK1alpha assessed as residual activity at 10 uM relative to control
[30] = target: Casein kinase I isoform delta (Rattus norvegicus) (UniProt Q06486); assay: Inhibition of rat CK1delta assessed as residual activity at 10 uM relative to control
Sequence of Casein kinase I isoform delta (Rattus norvegicus) (Q06486 whole entry, looked up, canonical isoform): as the sequence (Q06486 whole entry, canonical isoform) above

[31] = target: Cyclin-dependent kinase 2 (Homo sapiens) (UniProt P24941); assay: Inhibition of human CDK2 assessed as residual activity at 10 uM relative to control
[32] = target: Rho-associated protein kinase 2 (Rattus norvegicus) (UniProt Q62868); assay: Inhibition of rat ROCK2 assessed as residual activity at 25 uM relative to control
[33] = species on record: Bos taurus; assay: Inhibition of cow PKA assessed as residual activity at 25 uM relative to control
[34] = species on record: Rattus norvegicus; assay: Inhibition of rat AMPK assessed as residual activity at 25 uM relative to control
[35] = target: Proto-oncogene tyrosine-protein kinase Src (Homo sapiens) (UniProt P12931); assay: Inhibition of human SRC assessed as residual activity at 25 uM relative to control
[36] = species on record: Oryctolagus cuniculus; assay: Inhibition of rabbit MKK1 assessed as residual activity at 25 uM relative to control
[37] = target: Dual specificity tyrosine-phosphorylation-regulated kinase 1A (Rattus norvegicus) (UniProt Q63470); assay: Inhibition of rat DYRK1alpha assessed as residual activity at 25 uM relative to control
[38] = target: Casein kinase I isoform delta (Rattus norvegicus) (UniProt Q06486); assay: Inhibition of rat CK1delta assessed as residual activity at 25 uM relative to control
[39] = target: Cyclin-dependent kinase 2 (Homo sapiens) (UniProt P24941); assay: Inhibition of human CDK2 assessed as residual activity at 25 uM relative to control

`O=C(Nc1n[nH]c2ncc(-c3cccnc3)cc12)C1CCCC1` was tested, and the inhibition [1] was “Active”, the inhibition [2] was “inactive” and the inhibition [3] was “Active”. The inhibition [4] was “Active”.

With `NC(=O)c1ccc(-c2nc(-c3ccc4c(c3)OCCO4)c(-c3ccccn3)[nH]2)cc1` the Activity [5] was 4.9%, the Activity [6] was 9.33% and the Activity [7] was 32.7%. It also gave an Activity [8] of 52.9%, an Activity [9] of 9.66% and an Activity [10] of 24.3%. The Activity [11] was 43.1%, the Activity [12] was 22.3% and the Activity [13] was 31.9%. It also gave an Activity [14] of 18.8%, an Activity [15] of 41.9% and an Activity [16] of 6.96%. The Activity [17] was 13.7%, the Activity [18] was 26.6% and the Activity [19] was 55.4%. For the same compound, the Activity [20] was 3.92%, the Activity [21] was “Active” and the IC50 [22] was 4150 nM. The IC50 [23] was 353 nM, the IC50 [24] was “Not Active” and the Activity [25] was 105%. The Activity [26] was 98%, the Activity [27] was 82% and the Activity [28] was 93%. For the same compound, the Activity [29] was 86%, the Activity [30] was 4% and the Activity [31] was 113%.

`COc1cc(OC)c(C=C2C(=O)Nc3ccccc32)c(OC)c1` showed an Activity [32] of 78%, an Activity [33] of 82% and an Activity [34] of 71%. For the same compound, the Activity [35] was 70%, the Activity [36] was 86% and the Activity [37] was 73%. It also gave an Activity [38] of 9% and an Activity [39] of 83%.
